Values quoted from earlier work in patent US20060058225A1, “Used of inhibitors of phospholipase a2 for the treatment, prevention or diagnosis of neural inflammatory or demyelinating disease” (McGill University, priority 2002, published 2006).
Like-named read-outs stand apart in the source and are kept apart here.

Assays:
[1] = tested on: EAE; settings: guinea pigs
[2] = molecular target: T1, cPLA2 (Homo sapiens, UniProt P47712)
T1 sequence (P47712 1-749): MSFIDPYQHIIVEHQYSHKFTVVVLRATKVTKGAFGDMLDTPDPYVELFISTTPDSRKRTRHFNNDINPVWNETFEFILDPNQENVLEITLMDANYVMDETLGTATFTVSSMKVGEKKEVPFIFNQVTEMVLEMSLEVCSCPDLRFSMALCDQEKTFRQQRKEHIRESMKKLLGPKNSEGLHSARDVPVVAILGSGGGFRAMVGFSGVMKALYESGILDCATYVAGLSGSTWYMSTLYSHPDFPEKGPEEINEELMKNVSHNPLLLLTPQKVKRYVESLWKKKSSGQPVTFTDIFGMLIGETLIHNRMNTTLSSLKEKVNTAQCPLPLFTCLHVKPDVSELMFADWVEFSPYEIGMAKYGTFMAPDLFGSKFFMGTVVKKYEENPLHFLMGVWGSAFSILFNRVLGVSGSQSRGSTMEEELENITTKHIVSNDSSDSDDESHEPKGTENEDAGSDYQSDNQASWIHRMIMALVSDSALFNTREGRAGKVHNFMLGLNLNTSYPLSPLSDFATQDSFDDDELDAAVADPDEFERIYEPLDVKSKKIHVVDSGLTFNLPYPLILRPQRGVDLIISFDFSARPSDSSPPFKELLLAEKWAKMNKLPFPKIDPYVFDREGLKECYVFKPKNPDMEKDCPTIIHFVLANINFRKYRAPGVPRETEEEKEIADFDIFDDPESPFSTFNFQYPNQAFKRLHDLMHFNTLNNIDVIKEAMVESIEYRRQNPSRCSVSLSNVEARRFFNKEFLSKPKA

[3] = tested on: Ca++-independent PLA2
[4] = tested on: MS; settings: for effect on relapses: MS patients
[5] = tested on: EAE
[6] = tested on: EAE; remark: listed apart in the source
[7] = tested on: sPLA2
[8] = tested on: EAE; settings: for disease severity score in treated mice: timing of treatment not stated
[9] = tested on: 180 kDa calcium-dependent form of cPLA2; settings: isolated from human brain
[10] = treatment given after symptoms occurred

For O=C(O)c1cc(/N=N/c2ccc(S(=O)(=O)Nc3ccccn3)cc2)ccc1O [sulfasalazine], the disease incidence [1] is listed as “reduced disease incidence”.

In the case of O=C1O/C(=C/Br)CCC1c1cccc2ccccc12 (stereo not shown) [bromoenol lactone], the “inhibition of cPLA2” value [2] is given as “inhibitors” and the “inhibition of Ca++-independent PLA2” value [3] is given as “inhibitors”.

For O=C1c2c(O)ccc(O)c2C(=O)c2c(NCCNCCO)ccc(NCCNCCO)c21 [mitroxantrone], the effect on relapses [4] is given as “reduces relapse rate” and the side effects ([4]; patients) is given as “cardiac toxicity”.

In the case of “MT-II: Metallothinine (MT), thought to protect cells from reactive oxygen species”, the clinical score ([5]; rats treated starting at the day of onset of symptoms, controls 4.5) is listed as 2.

For CC1=C(/C=C/C(C)=C/C=C/C(C)=C/C(N)=O)C(C)(C)CCC1 [retinamide], the relapse ([6]; given after disease symptoms appeared) is listed as “no relapse”, the “clinical grade, end of course” value ([6]; given prior to EAE induction) is listed as 0.75 and the relapse ([6]; given prior to EAE induction) is listed as “no sign of relapse”. For the same molecule, the clinical grade reached ([6]; given prior to EAE induction, controls 3 during relapses) was 2, the “clinical grade, end of course” value [6, 10] was 2 and the “clinical grade, start of course” value [6, 10] was 4.

For O=C(CBr)c1ccc(Br)cc1 [p-bromophenacyl bromide], the “inhibition of sPLA2 activity” value [7] is given as “blocked”.

For CCCOc1cc([C@]2(C)CNC(=O)O2)ccc1OC [Mesopram], the EAE occurrence ([5]; rats treated before the onset of symptoms) is listed as “prevented” and the “clinical score in treated mice” value ([8]; treatment after symptoms began / at first clinical signs) is listed as 2.7.

For estrogen, the “delay of disease onset” value ([8]; mice) is given as “about 10 days”, the “reduction of EAE incidence” value ([8]; mice, timing not given) is given as roughly 30% and the “disease severity score in treated mice” value [8] is given as 1.5.

In the case of IFN-γ: interferon gamma, the effect on relapses [4] is listed as “increases the severity of the rate of relapse”.

For O=C(NN=C1CCCCC1)C(=O)NN=C1CCCCC1 [cuprizone], the “clinical score in treated mice” value ([8]; treatment before symptoms appeared (cuprizone: one week before EAE induction)) is listed as 3.3.

In the case of CN1C(C(=O)Nc2ccccn2)=C(O)c2ccccc2S1(=O)=O [piroxicam], the “mean clinical grade/score in treated rats” value ([5]; rats) is listed as 1.5.

For bromophenacyl bromide, the “inhibition of 180 kDa calcium-dependent cPLA2” value [9] is given as “inhibited”.

For NS(=O)(=O)c1cccc2c1c([N+](=O)[O-])cc1nc(O)c(O)nc12 [NBQX], the “clinical score in treated animals” value ([6]; in vivo) is given as 1.5.

In the case of Glatiramer acetate, the effect on relapses [4] is given as “decreases the rate of relapse” and the side effects ([4]; human, in vivo) is given as “cardiovascular problems such as chest pain, flushing and tachycardia”.

B1: MBP: myelin basic protein fed for oral tolerance (protein, UniProt P02686 1-304, looked up)
Myelin basic protein: MGNHAGKRELNAEKASTNSETNRGESEKKRNLGELSRTTSEDNEVFGEADANQNNGTSSQDTAVTDSKRTADPKNAWQDAHPADPGSRPHLIRLFSRDAPGREDNTFKDRPSESDELQTIQEDSAATSESLDVMASQKRPSQRHGSKYLATASTMDHARHGFLPRHRDTGILDSIGRFFGGDRGAPKRGSGKDSHHPARTAHYGSLPQKSHGRTQDENPVVHFFKNIVTPRTPPPSQGKGRGLSLSRFSWGAEGQRPGFGYGGRASDYKSAHKGFKGVDAQGTLSKIFKLGGRDSRSGSPMARR
In the case of B1, the “reduction of EAE incidence” value ([6]; animals, species not given) is listed as 80%, the “maximum disease severity score” value ([5]; rats fed prior to disease induction, control 4) is listed as 1.4 and the “disease severity score in treated mice” value [8] is listed as 0.6.
